Measurements published in patent publication US4011182A, “Cyclic undecapeptide analogs of somatostatin and intermediates” (American Home Products Corporation, priority 1975, dated 1977).
Read-outs that look alike come from different tables or passages of the source. Where a SMILES comes first, the peptide text is derived from it.

Legend:
glucagon = experiment: In vivo assay of simultaneous release of growth hormone, insulin and glucagon (pentobarbital, arginine): glucagon; set-up: species or system rats
Protocol: (§1) Another test was conducted with the compound of Example 5 to determine its effect upon insulin and glucagon levels. The in vivo assay determining simultaneous release of growth hormone, insulin and glucagon was carried out by injecting three groups of male rats weighing about 200 to 250 g. (9 animals per group) with pentobarbital intraperitoneally at a dose of 50 mg/kg per rat followed 15 minutes […], a subcutaneous injection of SRIF at a dose of 0.2 mg/kg to another group of rats and a subcutaneous injection of saline solution to the third group of rats. Ten minutes after such injection the rats receive 150 mg. arginine in 0.5 ml. saline directly in the heart. Five minutes later the rats are decapitated, the blood collected and various radioimmunoassays are run.

growth hormone [1] = experiment: Growth hormone level by radioimmunoassay in nembutal-treated rats after subcutaneous injection; type: in vivo
Protocol: The growth hormone activities of the compounds of Example 5 was determined by injecting rats weighing about 200-250 g. first with nembutal intraperitoneally at a dose of 50 mg/kg then after 5 minutes injecting the rats subcutaneously with a solution of the compound of Example 5 in saline at a dose of 2 mg/kg per rat. Blood samples are taken 15 minutes after injection with the compound of Example 5 and the growth hormone level determined by radioimmunoassay. […] The foregoing experiment was repeated but the dose of the compound of Example 5 was raised to 2.38 mg/kg and the blood was sampled 2 hours after injection.

insulin = experiment: In vivo assay of simultaneous release of growth hormone, insulin and glucagon (pentobarbital, arginine): insulin; set-up: species or system rats
Protocol: as §1, with “pentobarbital” for “pentobarbital intraperitoneally at a dose of 50 mg/kg per rat followed 15 minutes”

growth hormone [2] = system: growth hormone
Protocol: Another test was conducted with the compound of Example 5 to determine its effect upon insulin and glucagon levels. The in vivo assay determining simultaneous release of growth hormone, insulin and glucagon was carried out by injecting three groups of male rats weighing about 200 to 250 g. (9 animals per group) with pentobarbital intraperitoneally at a dose of 50 mg/kg per rat followed 15 minutes later by a subcutaneous injection of the compound of Example 5 at a dose of 2.7 mg/kg to one group of rats, a subcutaneous injection of SRIF at a dose of 0.2 mg/kg to another group of rats and a subcutaneous injection of saline solution to the third group of rats. Ten minutes after such injection the rats receive 150 mg. arginine in 0.5 ml. saline directly in the heart. Five minutes later the rats are decapitated, the blood collected and various radioimmunoassays are run.

[3] = male rats, 2.7 mg/kg subcutaneously, arginine stimulated

`C[C@@H](O)[C@@H]1NC(=O)[C@H](Cc2ccccc2)NC(=O)[C@H]([C@@H](C)O)NC(=O)[C@H](CCCCN)NC(=O)[C@H](Cc2c[nH]c3ccccc23)NC(=O)[C@H](Cc2ccccc2)NC(=O)[C@H](Cc2ccccc2)NC(=O)[C@H](CC(N)=O)NC(=O)[C@H](CCCCN)NC(=O)CC[C@@H](C(=O)O)NC(=O)[C@H](CO)NC1=O` [Example 5, L-lysyl-L-asparaginyl-L-phenylalanyl-L-phenylalanyl-L-tryptophyl-L-lysyl-L- threonyl-L-phenylalanyl-L-threonyl-L-seryl-L-glutamyl (cyclo α-lysyl to γ-glutamyl) peptide] (HELM PEPTIDE1{K.N.F.F.W.K.T.F.T.S.E}$PEPTIDE1,PEPTIDE1,1:R1-11:R3$$$V2.0) was tested, and the glucagon levels (glucagon; [3]) was “neither glucagon nor insulin levels were lowered”, the growth hormone level (growth hormone [1]; rats, 2 mg/kg subcutaneously, blood 15 minutes after injection, control 132 ± 20) was 79 ± 14 ng/mL and the growth hormone level (growth hormone [1]; rats, 2.38 mg/kg subcutaneously, blood 2 hours after injection, control 244 ± 38) was 89 ± 23 ng/mL. For the same molecule, the insulin levels (insulin; [3]) was “neither glucagon nor insulin levels were lowered”.

With “L-Lysyl-L-asparaginyl-L-phenylalanyl-L-phenylalanyl-D-tryptophyl-L-lysyl-L- threonyl-L-phenylalanyl-L-threonyl-L-seryl-glutamyl-(cyclo-α-lysyl to γ-glutamyl)peptide [Example 6]” the Glucagon (glucagon; experiment 3, dose 3,000 μg/kg, control 129±9) was 107±9 picog/ml, the growth hormone level (growth hormone [1]; rats, 1,500 μg/kg, after four hours, control 182 ± 49) was 34 ± 11 nanograms per milliliter and the growth hormone level (growth hormone [1]; rats, 1,500 μg/kg, two hours after administration, control 180 ± 27) was 18 ± 4 nanograms per milliliter. The Insulin (insulin; experiment 1, dose 3,000 μg/kg, control 194±17) was 152±13 μU/ml, the Insulin (insulin; experiment 3, dose 3,000 μg/kg, control 183±19) was 93±9 μU/ml and the GH (growth hormone [2]; experiment 1, dose 3,000 μg/kg, control 247±52) was 61 ± 7 ng/mL. It also gave a GH (growth hormone [2]; experiment 2, dose 12 μg/kg, control 315±22) of 192 ± 29 ng/mL.
